Earlier results on 8 molecules are cited in patent US20040204435A1, “Alternating treatment with topoisomerase I and topoisomerase II inhibitors” (priority 2003, published 2004).

For series [1] the following is noted: mouse plasma.
The conditions of series [2]: humans, plasma.
The conditions of series [3]: for clinical effectiveness: cancer patients.
Test in series [4]: not given
The source holds these as a separate data set.

The conditions of series [5]: carboxylate versus CPT (lactone).

With `CCc1c2c(nc3ccc(OC(=O)N4CCC(N5CCCCC5)CC4)cc13)-c1cc3c(c(=O)n1C2)COC(=O)[C@]3(O)CC` [Camptosar, irinotecan], the solubility in water result is reported as “water soluble”.

As for `CC[C@@]1(O)C(=O)OCc2c1cc1n(c2=O)Cc2cc3c([N+](=O)[O-])cccc3nc2-1` [9NC, 9-nitrocamptothecin], in series [1], the “administered dose circulating as active lactone form” value was “Up to 50%”. The “effect on human tumor xenografts in nude mice” value (“effect … in nude mice” below) in the series with human tumor xenografts is listed as “completely eradicate”. In series [2], the “drug circulating as lactone” value is listed as 2-5%. Moreover, the clinical effectiveness result in series [3] was “less effective against human pancreas tumors in humans than against human cancer xenografts in nude mice”.

Consider `CC[C@@](O)(C(=O)[O-])c1cc2n(c(=O)c1CO)Cc1cc3ccccc3nc1-2.[Na+]` [sodium salt of CPT], for which the toxicities entry in series [4] (in vivo) is “myelosuppression, diarrhea and cystitis”. In addition, the clinical benefit result in series [4] (phase I and II trials 1970-1972) is given as “no clinical benefit”.

With `CC[C@@]1(O)C(=O)OCc2c1cc1n(c2=O)Cc2cc3c(N)cccc3nc2-1` [9-aminocamptothecin], the “effect … in nude mice” value in the series on human tumor xenografts is “completely eradicate”. Moreover, the clinical effectiveness entry in series [3] is recorded as “insufficiently effective”.

For the molecule `CCC(O)(C(=O)O)c1cc2n(c(=O)c1CO)Cc1cc3ccccc3nc1-2` (stereo not shown) [CPT carboxylate], the solubility in water entry is “soluble”. Further, the “anticancer activity relative to CPT” value in series [5] is recorded as ~10%.

As to `CC[C@@]1(O)C(=O)OCc2c1cc1n(c2=O)Cc2cc3c(CN(C)C)c(O)ccc3nc2-1` [Topotecan], the solubility in water entry was “water soluble”.

For `CC[C@@]1(O)C(=O)OCc2c1cc1n(c2=O)Cc2cc3ccccc3nc2-1` [CPT lactone], the solubility in water entry is “insoluble”.

Regarding `CC[C@@]1(O)C(=O)OCc2c1cc1n(c2=O)Cc2cc3ccccc3nc2-1` [CPT, Camptothecin], in the series with human tumor xenografts, the “effect … in nude mice” value is listed as “completely eradicate”. The clinical effectiveness entry in series [3] was “much less effective in cancer patients than in mice”. For the same molecule, the dose-limiting toxicity result in series [3] (clinical trials (9NC: phase I-II)) is on record as “diarrhea”.
